From article PMC6429214, “Design, Synthesis and Biological Evaluation of Isoxazole-Based CK1 Inhibitors Modified with Chiral Pyrrolidine Scaffolds” (Molecules, 2019)

How the values were obtained:
Experiment in all cases: 33PanQinase panel
Type in all cases: biochemical
[1] = target: T1, MYLK3 (Homo sapiens, UniProt Q32MK0); conditions: MYLK3, 1 µM; read-out: Residual Activity (%)
T1 construct: purchased ProQinase
Method: (§1) Figure 5 Dendrogram representation of the selectivity profile of 29d at a concentration of 1 μM in a panel of 320 wild-type kinases (ProQinase, Freiburg, Germany). The residual kinase activity was determined compared to DMSO control. Images were generated using TREEspot Software Tool, DISCOVERX CORPORATION 2010.
(§2) Figure S1. X-ray crystal structure of intermediate compound 25d (ORTEP drawing with ellipsoids at 30% probability). CCDC 1589043 contains the supplementary crystallographic data for this paper. The data can be obtained free of charge from The Cambridge Crystallographic Data Centre via www.ccdc.cam.ac.uk/structures.
(§3) Table S1 Data collection, structure refinement and Ramachrandran plot results of protein crystallization of CK1δ in complex with compound 30a and 30b, respectively.
(§4) Root-mean-square deviations
(§5) Additionally allowed 2.6 2.2
(§6) Table S2. Selectivity profile of compound 29d. The inhibitor has been screened at a concentration of 1 µM over a panel of 320 wild-type protein kinases by ProQinase GmbH (Freiburg, Germany) using an activity-based radiometric 33PanQinase® assay. Results are presented as percentage of residual kinase activity relative to […]
(§7) control. The final DMSO concentration was 1 % in each reaction-mix. Classification of protein kinase families refers to Manning et al. (Manning, G.; Whyte, D. B.; Martinez, R.; Hunter, T.; Sudarsanam, S. The Protein Kinase Complement of the Human Genome. Science 2002, 298, 1912–1934): AGC = containing PKA, PKG, PKC families; […] = containing Cdk, MAPK, GSK3, CLK families; STE = homologs of yeast sterile 7, sterile 11, sterile 20 kinases; TK = tyrosine kinase; TKL = tyrosine kinase-like.
(§8) Kinase name Kinase family Residual Activity (%)

[2] = target: T2, HIPK2 (Homo sapiens, UniProt Q9H2X6); conditions: HIPK2, 1 µM; read-out: Residual Activity (%)
T2 construct: purchased ProQinase
Method: as §1, §2, §3, §4, §5, §6, §7, §8

[3] = target: T3, CDK7/CycH/MAT1 (Homo sapiens, UniProt P50613); conditions: CDK7/CycH/MAT1, 1 µM; read-out: Residual Activity (%)
T3 construct: purchased ProQinase
Method: as §1, §2, §3, §4, §5, §6, §7, §8

[4] = target: T4, GRK7 (Homo sapiens, UniProt Q8WTQ7); conditions: GRK7, 1 µM; read-out: Residual Activity (%)
T4 construct: purchased ProQinase
T4 sequence (Q8WTQ7 whole entry): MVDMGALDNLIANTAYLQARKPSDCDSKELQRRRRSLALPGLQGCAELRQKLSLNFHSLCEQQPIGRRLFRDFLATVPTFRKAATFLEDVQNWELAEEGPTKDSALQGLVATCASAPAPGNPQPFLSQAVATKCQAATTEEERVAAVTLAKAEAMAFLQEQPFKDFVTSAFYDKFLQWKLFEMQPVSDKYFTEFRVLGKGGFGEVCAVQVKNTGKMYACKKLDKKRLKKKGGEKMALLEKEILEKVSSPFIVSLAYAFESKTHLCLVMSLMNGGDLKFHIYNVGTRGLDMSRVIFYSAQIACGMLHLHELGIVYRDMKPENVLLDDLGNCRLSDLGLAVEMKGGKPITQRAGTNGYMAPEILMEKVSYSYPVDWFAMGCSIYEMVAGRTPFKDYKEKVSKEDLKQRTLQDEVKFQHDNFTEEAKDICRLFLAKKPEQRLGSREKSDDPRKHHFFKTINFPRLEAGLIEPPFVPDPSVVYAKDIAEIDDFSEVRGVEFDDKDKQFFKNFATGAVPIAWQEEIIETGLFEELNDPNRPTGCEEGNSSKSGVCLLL
Method: as §1, §2, §3, §4, §5, §6, §7, §8

[5] = target: T5, YES (Homo sapiens, UniProt P07947); conditions: read-out: Residual Activity (%)
T5 construct: purchased ProQinase
Method: as §1, §2, §3, §4, §5, §6, §7, §8

[6] = target: T6, CAMK2B (Homo sapiens, UniProt Q13554); conditions: read-out: Residual Activity (%)
T6 construct: purchased ProQinase
Method: as §1, §2, §3, §4, §5, §6, §7, §8

[7] = target: T7, HRI (Homo sapiens, UniProt Q9BQI3); conditions: read-out: Residual Activity (%)
T7 construct: purchased ProQinase
Method: as §1, §2, §3, §4, §5, §6, §7, §8

[8] = target: T8, DYRK4 (Homo sapiens, UniProt Q9NR20); conditions: DYRK4, 1 µM; read-out: Residual Activity (%)
T8 construct: purchased ProQinase
Method: as §1, §2, §3, §4, §5, §6, §7, §8

[9] = target: T9, EPHA8 (Homo sapiens, UniProt P29322); conditions: EPHA8, 1 µM; read-out: Residual Activity (%)
T9 construct: purchased ProQinase
Method: as §1, §2, §3, §4, §5, §6, §7, §8

[10] = target: T10, PDGFR-alpha (Homo sapiens, UniProt P16234); conditions: read-out: Residual Activity (%)
T10 construct: purchased ProQinase
Method: as §1, §2, §3, §4, §5, §6, §7, §8

[11] = target: T11, TAOK2 (Homo sapiens, UniProt Q9UL54); conditions: TAOK2, 1 µM; read-out: Residual Activity (%)
T11 construct: purchased ProQinase
T11 sequence (Q9UL54 whole entry): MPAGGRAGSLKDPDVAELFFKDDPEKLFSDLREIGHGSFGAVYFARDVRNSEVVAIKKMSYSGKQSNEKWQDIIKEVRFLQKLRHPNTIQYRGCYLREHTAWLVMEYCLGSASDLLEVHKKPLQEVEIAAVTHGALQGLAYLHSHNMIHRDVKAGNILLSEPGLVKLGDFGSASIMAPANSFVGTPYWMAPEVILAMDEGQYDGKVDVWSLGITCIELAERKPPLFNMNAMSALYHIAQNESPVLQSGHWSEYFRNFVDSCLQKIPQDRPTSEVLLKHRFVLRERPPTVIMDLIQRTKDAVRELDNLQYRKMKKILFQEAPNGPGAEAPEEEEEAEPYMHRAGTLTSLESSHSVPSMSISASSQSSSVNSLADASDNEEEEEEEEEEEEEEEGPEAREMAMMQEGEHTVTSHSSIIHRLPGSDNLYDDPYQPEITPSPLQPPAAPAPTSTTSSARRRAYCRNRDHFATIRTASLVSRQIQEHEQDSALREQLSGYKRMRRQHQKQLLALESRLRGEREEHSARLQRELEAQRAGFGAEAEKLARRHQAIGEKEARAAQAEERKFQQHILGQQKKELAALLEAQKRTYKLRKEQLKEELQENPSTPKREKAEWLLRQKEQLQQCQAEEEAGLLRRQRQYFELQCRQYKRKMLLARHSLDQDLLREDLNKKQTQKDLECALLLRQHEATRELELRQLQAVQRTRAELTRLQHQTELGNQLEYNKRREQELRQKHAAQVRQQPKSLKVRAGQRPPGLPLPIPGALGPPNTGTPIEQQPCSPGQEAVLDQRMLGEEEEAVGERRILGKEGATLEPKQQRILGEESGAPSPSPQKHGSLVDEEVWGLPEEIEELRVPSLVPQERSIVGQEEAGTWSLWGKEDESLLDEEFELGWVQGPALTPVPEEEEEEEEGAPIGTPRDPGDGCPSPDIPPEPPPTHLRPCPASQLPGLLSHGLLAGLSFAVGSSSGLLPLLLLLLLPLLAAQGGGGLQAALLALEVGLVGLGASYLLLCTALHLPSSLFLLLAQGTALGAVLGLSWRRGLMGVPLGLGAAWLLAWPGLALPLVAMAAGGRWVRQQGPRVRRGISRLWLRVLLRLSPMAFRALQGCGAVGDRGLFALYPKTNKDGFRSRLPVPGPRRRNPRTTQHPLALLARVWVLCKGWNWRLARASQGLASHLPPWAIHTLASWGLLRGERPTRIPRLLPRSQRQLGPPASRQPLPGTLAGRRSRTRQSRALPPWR
Method: as §1, §2, §3, §4, §5, §6, §7, §8

[12] = target: T12, LYN (Homo sapiens, UniProt P07948); conditions: read-out: Residual Activity (%)
T12 construct: purchased ProQinase
Method: as §1, §2, §3, §4, §5, §6, §7, §8

[13] = target: T13, MAP4K2 (Homo sapiens, UniProt Q12851); conditions: MAP4K2, 1 µM; read-out: Residual Activity (%)
T13 construct: purchased ProQinase
Method: as §1, §2, §3, §4, §5, §6, §7, §8

[14] = target: T14, FLT3 (Homo sapiens, UniProt P36888); conditions: FLT3, 1 µM; read-out: Residual Activity (%)
T14 construct: purchased ProQinase
Method: as §1, §2, §3, §4, §5, §6, §7, §8

[15] = target: T15, EPHB3 (Homo sapiens, UniProt P54753); conditions: EPHB3, 1 µM; read-out: Residual Activity (%)
T15 construct: purchased ProQinase
Method: as §1, §2, §3, §4, §5, §6, §7, §8

[16] = target: T16, STK33 (Homo sapiens, UniProt Q9BYT3); conditions: STK33, 1 µM; read-out: Residual Activity (%)
T16 construct: purchased ProQinase
Method: as §1, §2, §3, §4, §5, §6, §7, §8

[17] = target: T17, CDK5/p25NCK (Homo sapiens, UniProt Q00535); conditions: read-out: Residual Activity (%)
T17 construct: purchased ProQinase
T17 sequence (Q00535 whole entry): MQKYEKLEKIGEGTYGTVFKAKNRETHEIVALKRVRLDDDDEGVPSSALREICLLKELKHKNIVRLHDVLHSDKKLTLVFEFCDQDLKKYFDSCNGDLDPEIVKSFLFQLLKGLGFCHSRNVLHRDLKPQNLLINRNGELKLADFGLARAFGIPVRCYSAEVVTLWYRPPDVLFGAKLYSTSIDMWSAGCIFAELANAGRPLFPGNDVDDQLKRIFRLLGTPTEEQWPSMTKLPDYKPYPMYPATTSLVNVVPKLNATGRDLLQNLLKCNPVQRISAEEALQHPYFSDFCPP
T17 sequence (Q15078 99-307 partner limits assumed): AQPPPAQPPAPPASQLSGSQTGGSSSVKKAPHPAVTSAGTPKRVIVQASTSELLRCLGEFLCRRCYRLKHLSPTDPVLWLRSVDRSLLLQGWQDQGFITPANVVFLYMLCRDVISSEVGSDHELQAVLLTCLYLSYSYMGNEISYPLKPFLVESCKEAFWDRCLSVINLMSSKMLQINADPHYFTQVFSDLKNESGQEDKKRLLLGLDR
Method: as §1, §2, §3, §4, §5, §6, §7, §8

[18] = target: T18, WNK3 (Homo sapiens, UniProt Q9BYP7); conditions: WNK3, 1 µM; read-out: Residual Activity (%)
T18 construct: purchased ProQinase
Method: as §1, §2, §3, §4, §5, §6, §7, §8

[19] = target: T19, FGF-R2 (Homo sapiens, UniProt P21802); conditions: FGF-R2, 1 µM; read-out: Residual Activity (%)
T19 construct: purchased ProQinase
Method: as §1, §2, §3, §4, §5, §6, §7, §8

[20] = target: T20, JAK2 (Homo sapiens, UniProt O60674); conditions: JAK2, 1 µM; read-out: Residual Activity (%)
T20 construct: purchased ProQinase
Method: as §1, §2, §3, §4, §5, §6, §7, §8

[21] = target: T21, CHK2 (Homo sapiens, UniProt O96017); conditions: CHK2, 1 µM; read-out: Residual Activity (%)
T21 construct: purchased ProQinase
T21 sequence (O96017 whole entry): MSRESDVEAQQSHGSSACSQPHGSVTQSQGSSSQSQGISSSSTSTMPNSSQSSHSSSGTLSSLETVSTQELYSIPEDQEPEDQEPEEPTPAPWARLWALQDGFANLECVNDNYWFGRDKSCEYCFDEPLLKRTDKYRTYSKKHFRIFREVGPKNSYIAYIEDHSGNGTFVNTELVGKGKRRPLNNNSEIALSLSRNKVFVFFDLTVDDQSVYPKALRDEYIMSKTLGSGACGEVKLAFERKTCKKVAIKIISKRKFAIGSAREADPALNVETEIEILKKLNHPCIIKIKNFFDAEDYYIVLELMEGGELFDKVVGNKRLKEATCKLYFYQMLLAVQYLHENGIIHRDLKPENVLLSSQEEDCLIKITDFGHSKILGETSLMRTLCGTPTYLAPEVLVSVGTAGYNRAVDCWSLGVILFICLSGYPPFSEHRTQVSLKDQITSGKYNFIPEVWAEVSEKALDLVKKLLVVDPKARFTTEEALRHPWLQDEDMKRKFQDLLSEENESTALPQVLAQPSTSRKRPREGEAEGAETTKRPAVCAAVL
Method: as §1, §2, §3, §4, §5, §6, §7, §8

[22] = target: T22, CDK16/CycY (Homo sapiens, UniProt Q00536); conditions: read-out: Residual Activity (%)
T22 construct: purchased ProQinase
Method: as §1, §2, §3, §4, §5, §6, §7, §8

[23] = target: T23, NEK3 (Homo sapiens, UniProt P51956); conditions: NEK3, 1 µM; read-out: Residual Activity (%)
T23 construct: purchased ProQinase
T23 sequence (P51956 whole entry): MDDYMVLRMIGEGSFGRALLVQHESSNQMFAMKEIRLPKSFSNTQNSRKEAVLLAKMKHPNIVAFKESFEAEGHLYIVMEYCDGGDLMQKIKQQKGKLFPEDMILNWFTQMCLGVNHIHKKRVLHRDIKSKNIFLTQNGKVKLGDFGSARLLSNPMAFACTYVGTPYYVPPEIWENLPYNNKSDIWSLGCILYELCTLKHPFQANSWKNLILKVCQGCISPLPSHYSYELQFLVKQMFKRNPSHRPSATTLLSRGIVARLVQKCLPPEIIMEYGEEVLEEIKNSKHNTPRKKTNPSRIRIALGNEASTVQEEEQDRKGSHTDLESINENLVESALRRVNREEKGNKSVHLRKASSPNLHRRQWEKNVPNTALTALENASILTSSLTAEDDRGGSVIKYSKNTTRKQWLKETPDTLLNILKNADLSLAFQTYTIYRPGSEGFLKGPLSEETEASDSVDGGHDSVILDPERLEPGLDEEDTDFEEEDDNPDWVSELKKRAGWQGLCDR
Method: as §1, §2, §3, §4, §5, §6, §7, §8

[24] = target: T24, MAP3K9 (Homo sapiens, UniProt P80192); conditions: MAP3K9, 1 µM; read-out: Residual Activity (%)
T24 construct: purchased ProQinase
Method: as §1, §2, §3, §4, §5, §6, §7, §8

[25] = target: T25, MAP3K1 (Homo sapiens, UniProt Q13233); conditions: MAP3K1, 1 µM; read-out: Residual Activity (%)
T25 construct: purchased ProQinase
T25 sequence (Q13233 whole entry): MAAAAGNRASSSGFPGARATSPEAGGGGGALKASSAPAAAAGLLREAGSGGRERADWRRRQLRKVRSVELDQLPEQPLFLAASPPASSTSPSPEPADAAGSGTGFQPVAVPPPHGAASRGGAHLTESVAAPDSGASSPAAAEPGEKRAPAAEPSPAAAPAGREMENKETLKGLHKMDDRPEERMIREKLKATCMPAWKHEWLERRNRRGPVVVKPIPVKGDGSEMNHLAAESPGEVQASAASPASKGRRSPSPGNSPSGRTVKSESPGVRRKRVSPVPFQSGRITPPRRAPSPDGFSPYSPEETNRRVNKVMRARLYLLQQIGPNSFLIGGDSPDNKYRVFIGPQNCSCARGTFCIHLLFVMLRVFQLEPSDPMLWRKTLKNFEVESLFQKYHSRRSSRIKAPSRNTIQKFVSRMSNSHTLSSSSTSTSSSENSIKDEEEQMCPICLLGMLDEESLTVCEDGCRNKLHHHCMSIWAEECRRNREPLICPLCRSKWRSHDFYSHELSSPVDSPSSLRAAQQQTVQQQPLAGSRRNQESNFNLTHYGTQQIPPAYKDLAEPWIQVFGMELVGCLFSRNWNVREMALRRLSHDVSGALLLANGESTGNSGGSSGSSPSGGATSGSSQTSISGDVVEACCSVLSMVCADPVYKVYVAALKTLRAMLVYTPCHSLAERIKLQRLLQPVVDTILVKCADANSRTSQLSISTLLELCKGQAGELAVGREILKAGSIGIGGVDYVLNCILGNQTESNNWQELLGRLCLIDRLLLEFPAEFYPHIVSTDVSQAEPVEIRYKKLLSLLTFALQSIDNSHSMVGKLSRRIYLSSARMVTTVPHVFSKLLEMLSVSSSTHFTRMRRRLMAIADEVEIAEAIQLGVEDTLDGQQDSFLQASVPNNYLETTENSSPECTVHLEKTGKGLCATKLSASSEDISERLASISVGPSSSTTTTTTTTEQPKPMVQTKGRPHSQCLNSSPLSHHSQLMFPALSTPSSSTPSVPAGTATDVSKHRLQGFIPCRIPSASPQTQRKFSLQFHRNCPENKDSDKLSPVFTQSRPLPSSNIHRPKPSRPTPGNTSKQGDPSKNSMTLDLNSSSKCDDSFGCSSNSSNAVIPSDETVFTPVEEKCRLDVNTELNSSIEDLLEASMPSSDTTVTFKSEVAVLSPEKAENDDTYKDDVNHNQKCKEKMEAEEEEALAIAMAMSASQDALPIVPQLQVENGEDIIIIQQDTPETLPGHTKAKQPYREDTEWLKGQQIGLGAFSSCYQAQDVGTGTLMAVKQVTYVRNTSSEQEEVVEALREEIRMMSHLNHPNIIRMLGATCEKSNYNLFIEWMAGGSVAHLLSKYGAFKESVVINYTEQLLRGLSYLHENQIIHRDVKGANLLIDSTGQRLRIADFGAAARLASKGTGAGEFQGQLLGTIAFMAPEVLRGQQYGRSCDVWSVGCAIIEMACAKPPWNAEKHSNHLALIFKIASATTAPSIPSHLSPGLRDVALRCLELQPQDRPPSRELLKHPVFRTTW
Method: as §1, §2, §3, §4, §5, §6, §7, §8

[26] = target: T26, CAMK1D (Homo sapiens, UniProt Q8IU85); conditions: read-out: Residual Activity (%)
T26 construct: purchased ProQinase
Method: as §1, §2, §3, §4, §5, §6, §7, §8

[27] = target: T27, CDK8/CycC (Homo sapiens, UniProt P49336); conditions: read-out: Residual Activity (%)
T27 construct: purchased ProQinase
Method: as §1, §2, §3, §4, §5, §6, §7, §8

SMILES: COc1ccc(-c2cc(C(=O)Nc3cc(-c4c(-c5ccc(F)cc5)noc4C(C)C)ccn3)n(CC3NCC(O)C3O)c2)cc1 (stereo not drawn) [29d]
- remaining activity at 1 µM [1]: 87%
- remaining activity at 1 µM [2]: 83%
- remaining activity at 1 µM [3]: 98%
- remaining activity at 1 µM [4]: 107%
- remaining activity at 1 µM [5]: 126%
- remaining activity at 1 µM [6]: 102%
- remaining activity at 1 µM [7]: 93%
- remaining activity at 1 µM [8]: 80%
- remaining activity at 1 µM [9]: 113%
- remaining activity at 1 µM [10]: 89%
- remaining activity at 1 µM [11]: 105%
- remaining activity at 1 µM [12]: 122%
- remaining activity at 1 µM [13]: 93%
- remaining activity at 1 µM [14]: 87%
- remaining activity at 1 µM [15]: 138%
- remaining activity at 1 µM [16]: 84%
- remaining activity at 1 µM [17]: 92%
- remaining activity at 1 µM [18]: 103%
- remaining activity at 1 µM [19]: 94%
- remaining activity at 1 µM [20]: 80%
- remaining activity at 1 µM [21]: 97%
- remaining activity at 1 µM [22]: 112%
- remaining activity at 1 µM [23]: 96%
- remaining activity at 1 µM [24]: 116%
- remaining activity at 1 µM [25]: 94%
- remaining activity at 1 µM [26]: 89%
- remaining activity at 1 µM [27]: 106%
